Here are results for three compounds from US9422267B2, “Fused pyrimidine compounds and use thereof” (Medivation Technologies, Inc., priority 2012, dated 2016).

For one test, the system named is MDA MB 175. The experiment in a line: Cell Titer-Glo cell viability: MDA MB 175. Type of test: cell-based. To be noted: MDA-MB-175, breast cancer; 72 h incubation, Cell Titer-Glo. How it is done:
(§1) Compound nos. […] This panel of cell lines includes an ER− breast carcinoma, primary breast ductal carcinoma, prostate adenocarcinoma, mammary adenocarcinoma, mammary ductal carcinoma, mammary ductal carcinoma, ovary adenocarcinoma, ER+ breast carcinoma, ER-HER2+ mammary ductal carcinoma and an ER+ mammary ductal carcinoma, respectively.
(§2) This assay quantitates the ATP present in order to determine the number of viable cells in culture. Briefly, the compounds were incubated with the cells for 72 h, followed by cell lysis. The resulting luminescent signal is proportional to the amount of ATP present and, therefore, directly proportional to the number of cells present in culture.
(§3) Compounds 2b, 5, 6b and 10a were tested along with derivatives in viability assays as described above by Caliper LifeSciences Systems (Hanover, Md.), in A549, HCT-15, HCT-116, MCF-7, MDA-MB-231, OVCAR3, T47D, COLO205, HT-29, BT-20, HCC1187, HL-60, MDA-MB-175, SW-620, and UACC812 cells.
(§4) The inhibitory effects of Compound 8a were tested in two cell lines.

The next test has as its system HL-60. Kind of test: Cell Titer-Glo cell viability: HL-60. Format: cell-based, human. To be noted: Homo sapiens, HL-60, 72 h. On the procedure:
as §2
(§5) Compound nos. […] These cell lines are derived from human lung carcinoma, colon adenocarcinoma, colon adenocarcinoma, colon carcinoma, acute promyelocytic leukemia, colon adenocarcinoma, colon adenocarcinoma (from metastatic site lymph node), respectively.
as §3

In the next test the test system is T47D. Kind of test: Cell Titer-Glo cell viability: T47D. Format: cell-based. The settings on record: Homo sapiens, breast cancer, 72 h incubation, Cell Titer-Glo. How it is done:
as §1, §2, §3

Another test deals with MDA MB 231. Kind of test: Cell Titer-Glo cell viability: MDA MB 231. The settings on record: Homo sapiens, MDAMB231, breast cancer, 72 h incubation, Cell Titer-Glo. Format: cell-based. On the procedure: as §1, §2, §3
A further test has as its system HT-29. Kind of test: Cell Titer-Glo cell viability: HT-29. Format: cell-based. The settings on record: Homo sapiens, HT-29, 72 h. On the procedure: as §2, §5, §3
Another test has as its target NTRK2 (TRKB) (Homo sapiens, UniProt Q16620). The experiment in a line: Caliper kinase profiling: NTRK2 (TRKB). To be noted: 0.01 μM.
In another test the target is FAK2(PTK2b) (Homo sapiens, UniProt Q14289). Kind of test: Caliper kinase assay: FAK2(PTK2b). The settings on record: 0.01 μM.
The test system of the next test is MCF-7. Kind of test: Cell Titer-Glo cell viability: MCF-7. To be noted: Homo sapiens; MCF7, breast cancer; 72 h incubation, Cell Titer-Glo. Type of test: cell-based. How it is done: as §1, §2, §3
The next test deals with TRKC (NTRK3) (Homo sapiens, UniProt Q16288). Kind of test: Caliper kinase profiling: TRKC (NTRK3). The settings on record: 0.01 μM.
Another test has as its system UACC 812. Kind of test: Cell Titer-Glo cell viability: UACC 812. To be noted: Homo sapiens; UACC 812, breast cancer; 72 h incubation, Cell Titer-Glo. Type of test: cell-based. How it is done: as §1, §2, §3, §4
The test system of a further test is HCC 1187. Kind of test: Cell Titer-Glo cell viability: HCC 1187. Type of test: cell-based. The settings on record: Homo sapiens, HCC1187; HCC-1187, breast cancer; 72 h incubation, Cell Titer-Glo. How it is done:
as §1, §2, §3

The test system of another test is OVCAR-3. The experiment in a line: Cell Titer-Glo cell viability: OVCAR-3. Type of test: cell-based. The settings on record: Homo sapiens, OVCAR3, ovarian cancer, 72 h incubation, Cell Titer-Glo. How it is done: as §1, §2, §3
The test system of the next test is SW-620. The experiment in a line: Cell Titer-Glo cell viability: SW-620. To be noted: Homo sapiens, SW-620, 72 h, SW-620, metastatic colorectal cancer. Format: cell-based. How it is done:
as §2, §5, §3

A further test has as its system LNCaP. The experiment in a line: Cell Titer-Glo cell viability: LNCaP. Type of test: cell-based. To be noted: Homo sapiens, Prostate cancer, 72 h incubation, Cell Titer-Glo. How it is done:
as §1, §2

Another test concerns BT-20. The experiment in a line: Cell Titer-Glo cell viability: BT-20. The settings on record: Homo sapiens; BT-20, breast cancer; 72 h incubation, Cell Titer-Glo. Type of test: cell-based. On the procedure: as §1, §2, §3
Test [1] relates to Akt phosphorylation induced by IGF-1R in HT-29 cells. Kind of test: Western blot analysis of Akt phosphorylation induced by IGF-1R. Type of test: cell-based, Human. The settings on record: then IGF-1 10 ng/mL 10 min, HT-29. On the procedure:
Inhibition of Akt phosphorylation induced by IGF-1R was studied by western blot analysis. Human colon carcinoma HT-29 cells were seeded at a density of 8×10^4 cells/well in a 24-well plate and grown in DME/F12 media containing 10% FBS for 24 h. The cells were then depleted of serum by incubation in DME/F12 media lacking FBS for 24 h. […] […] Lysed cells were centrifuged at 13,000 rpm for 15 min and the protein concentration soluble fraction (supernatant) of each sample was determined using a BCA protein assay (Pierce).

Another test concerns A549. Kind of test: Cell Titer-Glo cell viability: A549. To be noted: Homo sapiens, A549, 72 h, A549, non-small lung carcinoma. Type of test: cell-based. On the procedure: as §2, §5, §3
For a further test, the system named is COLO 205. Kind of test: Cell Titer-Glo cell viability: COLO 205. Type of test: cell-based. The settings on record: Homo sapiens, COLO 205, 72 h. How it is done:
as §2, §5, §3

Another test concerns HCT-116. The experiment in a line: Cell Titer-Glo cell viability: HCT-116. To be noted: Homo sapiens, HCT116, colon carcinoma. Type of test: cell-based. On the procedure: as §2, §5, §3
For another test, the system named is HCT-15. Kind of test: Cell Titer-Glo cell viability: HCT-15. Format: cell-based. To be noted: Homo sapiens, HCT-15, 72 h, HCT15, colon carcinoma. How it is done:
as §2, §5, §3

The target of a further test is T1, AXL (Homo sapiens, UniProt P30530).
T1 sequence (P30530 26-894): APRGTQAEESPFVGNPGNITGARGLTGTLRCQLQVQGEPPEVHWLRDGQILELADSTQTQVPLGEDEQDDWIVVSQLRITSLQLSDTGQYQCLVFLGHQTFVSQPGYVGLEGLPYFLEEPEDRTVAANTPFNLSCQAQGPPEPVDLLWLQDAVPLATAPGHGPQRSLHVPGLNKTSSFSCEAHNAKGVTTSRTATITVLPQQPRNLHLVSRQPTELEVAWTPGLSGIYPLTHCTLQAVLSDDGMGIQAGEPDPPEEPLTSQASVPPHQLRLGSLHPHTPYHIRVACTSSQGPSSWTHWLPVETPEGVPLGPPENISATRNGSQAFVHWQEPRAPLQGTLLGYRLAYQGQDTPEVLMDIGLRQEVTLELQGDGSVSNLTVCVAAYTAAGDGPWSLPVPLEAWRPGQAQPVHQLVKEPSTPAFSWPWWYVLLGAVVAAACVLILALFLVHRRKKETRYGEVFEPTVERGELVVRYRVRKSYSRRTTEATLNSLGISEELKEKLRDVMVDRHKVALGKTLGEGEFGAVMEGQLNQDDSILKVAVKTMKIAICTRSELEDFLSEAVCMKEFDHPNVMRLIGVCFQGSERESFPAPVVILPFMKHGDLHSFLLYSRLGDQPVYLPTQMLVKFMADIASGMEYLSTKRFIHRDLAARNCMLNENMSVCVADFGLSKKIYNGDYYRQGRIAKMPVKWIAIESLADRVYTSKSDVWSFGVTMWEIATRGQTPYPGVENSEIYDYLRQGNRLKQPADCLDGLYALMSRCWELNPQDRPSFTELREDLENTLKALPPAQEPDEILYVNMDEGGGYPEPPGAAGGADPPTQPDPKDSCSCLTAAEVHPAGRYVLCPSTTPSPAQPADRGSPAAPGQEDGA
The experiment in a line: Caliper kinase profiling: AXL. The settings on record: 0.01 μM.

The target of test [2] is T2, IGF1R (Homo sapiens, UniProt P08069). The experiment in a line: In vitro IGF-1R enzymatic assay (ADP-Glo kinase assay). More on the design: purchased Millipore 14-802. To be noted: activated IGF-1R; read-out: IC50. Type of test: biochemical. How it is done:
(§6) IC50 values of the compounds of the invention against IGF-1R and IR were measured in vitro using an ADP-Glo kinase assay Kit (Promega). […] Kinase reactions in both assays were conducted at 30° C. for 20 min with increasing concentrations of compounds of the invention.

The target in a further test is T3, IR (Homo sapiens, UniProt P06213).
T3 construct: purchased Millipore 14-803
Kind of test: In vitro IR enzymatic assay (ADP-Glo kinase assay). Type of test: biochemical. The settings on record: activated IR; read-out: IC50. How it is done:
as §6

A further test concerns the target KDR (Homo sapiens, UniProt P35968). Kind of test: Caliper kinase profiling: KDR. Format: biochemical. The settings on record: read-out: Average % Inh @ 1 μM.
Test [3] addresses T2, IGF1R. Kind of test: Caliper kinase profiling: IGF1R. More on the design: purchased Caliper LifeSciences (ProfilerPro Kinase Selectivity Assay Kits). To be noted: 1 μM, read-out: Average % Inh @ 1 μM. Type of test: biochemical.
Protocol: (§7) The compound was tested at concentrations of 1.0×10^−8 and 1.0×10^−9 M in the RapidKinase192™ panel in duplicate. […] The screening was performed using the Caliper EZReader2, a 4-sipper LabChip, and ProfilerPro Kinase Selectivity Assay Kits 1 and 2. The assay measures the conversion of a fluorescent peptide substrate to a phosphorylated product. Briefly, the reaction mixture was introduced through a capillary sipper onto the microfluidic chip, where the substrate and product were electrophoretically separated and detected by laser-induced fluorescence. The time-dependent fluorescence signal indicates the extent of the reaction.
Setting [4] is: 72 h incubation, Cell Titer-Glo.

Where only a bound is given, the exact number is not on record here.

TRKC (NTRK3), sequence (Q16288 32-839): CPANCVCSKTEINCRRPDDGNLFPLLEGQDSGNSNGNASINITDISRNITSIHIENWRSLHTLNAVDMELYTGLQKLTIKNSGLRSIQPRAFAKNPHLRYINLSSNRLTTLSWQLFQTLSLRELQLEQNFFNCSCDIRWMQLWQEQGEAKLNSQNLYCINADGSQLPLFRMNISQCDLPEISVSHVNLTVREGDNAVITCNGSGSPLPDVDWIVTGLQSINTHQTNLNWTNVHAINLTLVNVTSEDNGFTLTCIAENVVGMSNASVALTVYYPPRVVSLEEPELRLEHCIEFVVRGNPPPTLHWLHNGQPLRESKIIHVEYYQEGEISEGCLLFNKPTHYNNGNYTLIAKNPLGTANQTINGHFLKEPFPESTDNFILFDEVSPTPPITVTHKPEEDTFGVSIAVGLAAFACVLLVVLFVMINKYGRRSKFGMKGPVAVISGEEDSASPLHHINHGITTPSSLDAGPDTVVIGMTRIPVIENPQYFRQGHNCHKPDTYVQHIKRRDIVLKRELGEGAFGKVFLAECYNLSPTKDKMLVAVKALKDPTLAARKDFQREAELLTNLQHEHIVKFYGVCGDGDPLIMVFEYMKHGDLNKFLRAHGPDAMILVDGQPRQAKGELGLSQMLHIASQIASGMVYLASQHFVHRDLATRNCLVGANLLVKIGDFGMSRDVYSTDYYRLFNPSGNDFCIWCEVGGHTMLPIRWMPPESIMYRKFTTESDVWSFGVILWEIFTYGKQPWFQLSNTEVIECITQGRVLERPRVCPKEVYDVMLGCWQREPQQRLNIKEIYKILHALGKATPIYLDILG
T2 sequence (P08069 31-1367): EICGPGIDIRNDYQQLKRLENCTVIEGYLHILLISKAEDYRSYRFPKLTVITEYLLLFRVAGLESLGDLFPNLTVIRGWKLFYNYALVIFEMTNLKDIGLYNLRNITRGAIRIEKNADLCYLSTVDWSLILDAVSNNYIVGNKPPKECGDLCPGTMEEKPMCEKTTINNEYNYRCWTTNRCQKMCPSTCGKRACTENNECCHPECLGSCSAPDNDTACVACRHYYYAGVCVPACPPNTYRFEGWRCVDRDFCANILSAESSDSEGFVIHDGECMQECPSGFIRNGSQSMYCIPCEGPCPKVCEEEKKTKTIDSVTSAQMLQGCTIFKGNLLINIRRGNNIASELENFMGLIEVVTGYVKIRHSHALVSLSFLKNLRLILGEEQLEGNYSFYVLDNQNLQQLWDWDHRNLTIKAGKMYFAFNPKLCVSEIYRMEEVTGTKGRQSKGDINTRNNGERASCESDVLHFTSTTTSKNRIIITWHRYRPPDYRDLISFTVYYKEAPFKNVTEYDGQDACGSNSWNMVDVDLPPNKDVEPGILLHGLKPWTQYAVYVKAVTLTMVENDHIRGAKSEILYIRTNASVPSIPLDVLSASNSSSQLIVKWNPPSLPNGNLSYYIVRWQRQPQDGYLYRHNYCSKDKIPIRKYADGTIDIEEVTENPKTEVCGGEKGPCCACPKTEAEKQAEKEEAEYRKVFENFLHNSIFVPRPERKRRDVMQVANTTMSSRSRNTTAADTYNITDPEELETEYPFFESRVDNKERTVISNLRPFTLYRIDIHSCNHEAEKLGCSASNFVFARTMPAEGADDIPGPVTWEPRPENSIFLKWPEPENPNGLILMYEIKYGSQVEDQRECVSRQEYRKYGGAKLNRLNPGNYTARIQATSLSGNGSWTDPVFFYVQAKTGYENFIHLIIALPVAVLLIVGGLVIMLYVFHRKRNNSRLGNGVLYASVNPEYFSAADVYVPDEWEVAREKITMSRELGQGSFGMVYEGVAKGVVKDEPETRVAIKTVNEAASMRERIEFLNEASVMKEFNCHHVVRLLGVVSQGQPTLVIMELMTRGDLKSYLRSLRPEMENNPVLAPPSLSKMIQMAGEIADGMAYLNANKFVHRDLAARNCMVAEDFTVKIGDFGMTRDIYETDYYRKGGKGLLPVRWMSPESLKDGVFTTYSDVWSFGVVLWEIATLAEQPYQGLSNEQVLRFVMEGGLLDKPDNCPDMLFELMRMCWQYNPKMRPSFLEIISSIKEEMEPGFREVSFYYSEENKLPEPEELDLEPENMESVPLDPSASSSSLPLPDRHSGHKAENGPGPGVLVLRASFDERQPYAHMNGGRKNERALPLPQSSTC
NTRK2 (TRKB), sequence (Q16620 32-822): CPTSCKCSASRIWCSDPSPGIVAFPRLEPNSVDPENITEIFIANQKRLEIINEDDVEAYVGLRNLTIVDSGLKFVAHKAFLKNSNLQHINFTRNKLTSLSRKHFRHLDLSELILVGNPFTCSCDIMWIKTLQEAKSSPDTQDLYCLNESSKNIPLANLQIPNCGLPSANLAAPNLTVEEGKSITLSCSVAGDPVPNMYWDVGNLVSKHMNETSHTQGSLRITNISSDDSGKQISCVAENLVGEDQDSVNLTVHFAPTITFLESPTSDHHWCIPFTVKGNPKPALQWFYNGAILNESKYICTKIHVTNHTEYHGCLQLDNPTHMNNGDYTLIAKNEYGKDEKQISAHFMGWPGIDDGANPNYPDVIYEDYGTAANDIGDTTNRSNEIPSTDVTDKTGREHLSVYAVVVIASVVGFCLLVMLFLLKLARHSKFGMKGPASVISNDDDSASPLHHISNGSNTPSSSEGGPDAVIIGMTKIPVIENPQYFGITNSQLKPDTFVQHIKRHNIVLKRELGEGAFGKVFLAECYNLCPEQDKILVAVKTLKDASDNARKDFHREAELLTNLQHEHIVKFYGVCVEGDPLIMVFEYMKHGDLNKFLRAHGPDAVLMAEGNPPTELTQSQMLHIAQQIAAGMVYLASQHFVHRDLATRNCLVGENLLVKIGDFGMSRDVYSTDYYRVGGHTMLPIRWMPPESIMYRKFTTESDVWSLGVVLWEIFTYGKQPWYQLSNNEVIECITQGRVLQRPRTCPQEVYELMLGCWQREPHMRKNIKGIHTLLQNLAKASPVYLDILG
FAK2(PTK2b), sequence (Q14289 whole entry): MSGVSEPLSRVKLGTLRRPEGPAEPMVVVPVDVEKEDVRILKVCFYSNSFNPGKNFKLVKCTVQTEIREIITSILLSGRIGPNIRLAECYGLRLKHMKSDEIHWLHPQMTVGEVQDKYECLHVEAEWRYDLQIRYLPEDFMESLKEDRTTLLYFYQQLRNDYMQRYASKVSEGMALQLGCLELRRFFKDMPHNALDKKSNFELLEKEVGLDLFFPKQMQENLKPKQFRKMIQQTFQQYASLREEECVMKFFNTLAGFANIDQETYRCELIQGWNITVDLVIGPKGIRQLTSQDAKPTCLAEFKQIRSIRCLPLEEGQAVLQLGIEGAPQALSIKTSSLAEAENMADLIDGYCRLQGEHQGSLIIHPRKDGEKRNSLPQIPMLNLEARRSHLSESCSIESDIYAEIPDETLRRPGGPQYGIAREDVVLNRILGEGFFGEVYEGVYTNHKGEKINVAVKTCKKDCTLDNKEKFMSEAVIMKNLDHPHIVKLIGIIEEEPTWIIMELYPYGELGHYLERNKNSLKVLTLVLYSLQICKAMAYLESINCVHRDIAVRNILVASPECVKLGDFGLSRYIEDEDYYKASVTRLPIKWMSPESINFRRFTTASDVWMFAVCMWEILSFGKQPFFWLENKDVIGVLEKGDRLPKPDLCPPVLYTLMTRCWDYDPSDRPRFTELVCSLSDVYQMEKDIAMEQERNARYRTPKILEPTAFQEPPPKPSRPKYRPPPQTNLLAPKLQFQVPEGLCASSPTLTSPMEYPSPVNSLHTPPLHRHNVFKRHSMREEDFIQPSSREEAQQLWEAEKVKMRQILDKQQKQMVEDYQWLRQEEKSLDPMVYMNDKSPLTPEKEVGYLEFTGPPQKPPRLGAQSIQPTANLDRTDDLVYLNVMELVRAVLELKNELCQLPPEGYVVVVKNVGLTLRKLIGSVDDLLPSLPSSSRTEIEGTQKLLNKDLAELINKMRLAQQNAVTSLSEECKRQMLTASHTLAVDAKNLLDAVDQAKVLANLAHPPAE
Protocol for AXL: as §7
(§8) The kinases tested were AurA, AurB, AurC, AXL, FAK2, IGF1R, InsR, Mer, MET, TrkB and TrkC.
(§9) The assays were conducted using the Caliper LabChip 3000 and a 12-sipper LabChip as described above.
Protocol for FAK2(PTK2b): as §7, §8, §9
Protocol for KDR: as §7
Protocol for NTRK2 (TRKB): as §7, §8, §9
Protocol for TRKC (NTRK3): as §7, §8, §9

Regarding `O=C(Nc1ccc(F)nc1)C1CC(O)CN1c1nc2c(c(Nc3cc(C4CC4)[nH]n3)n1)CCC2` (single isomer, unassigned) [Compound 10a], the IC50 in the test with MDA MB 175 was less than 10 µM; with HL-60 (HL60, promyelocytic leukemia, 72 h incubation, Cell Titer-Glo) it was 0.1 µM; with T47D it was 1 µM; in the test with MDA MB 231, 10 µM; in the test with HT-29 (HT-29, colon adenocarcinoma, 72 h incubation, Cell Titer-Glo), less than 0.1 µM; in the test with MCF-7, less than 1 µM. Moreover, the IC50 in the test with UACC 812 is less than 10 µM; in the test with HCC 1187 it was less than 1 µM; in the test on OVCAR-3, 1 µM; in the test on SW-620 (setting [4]) it was less than 10 µM; in the test with LNCaP it was less than 1 µM; in the test with BT-20, less than 10 µM. Moreover, the IC50 in the test on A549 (setting [4]) was less than 10 µM; in the test on COLO 205 (COLO205, colon cancer, 72 h incubation, Cell Titer-Glo), less than 0.1 µM; with HCT-116 (setting [4]) it was 10 µM; in the test on HCT-15 (setting [4]), less than 100 µM. Further, the “inhibition of TrkB in panel of 11 kinases” value against NTRK2 (TRKB) is given as “strongly inhibited”. Besides, the “inhibition of FAK2 in panel of 11 kinases” value at FAK2(PTK2b) was “strongly inhibited”. In addition, the “inhibition of TrkC in panel of 11 kinases” value on TRKC (NTRK3) was “strongly inhibited”. In addition, the results for the “phosphorylated AKT levels normalized to actin levels (pAKT/actin)” value in [1] (1 nM compound 2 h), in test [1] (10 nM compound 2 h) and in [1] (100 nM compound 2 h) were 0.54, 0.00 and 0.01, respectively. Besides, on AXL, the “inhibition of AXL in panel of 11 kinases” value is “strongly inhibited”.
With `O=C(Nc1ccc(F)nc1)C1CC(O)CN1c1nc2c(c(Nc3cc(C4CC4)[nH]n3)n1)CCC2` (single isomer, unassigned) [Compound 10d, 1-(4-(5-cyclopropyl-1H-pyrazol-3-ylamino)-6,7-dihydro-5H-cyclopenta[d]pyrimidin-2-yl)-N-(6-fluoropyridin-3-yl)-4-hydroxypyrrolidine-2-carboxamide], at NTRK2 (TRKB), the “inhibition of TrkB in panel of 11 kinases” value is “strongly inhibited”. The “inhibition of FAK2 in panel of 11 kinases” value against FAK2(PTK2b) is recorded as “strongly inhibited”. Further, the “inhibition of TrkC in panel of 11 kinases” value against TRKC (NTRK3) is on record as “strongly inhibited”. Besides, the figures for the half-maximal inhibitory concentration (IC50) at IGF1R [2] and on IR were 0.0058 µM and 0.0072 µM, respectively. Further, the “inhibition of AXL in panel of 11 kinases” value against AXL is given as “strongly inhibited”.
`CC1(O)CC(c2nc(-c3ccc4ccc(-c5ccccc5)nc4c3)c3c(N)nccn23)C1` (stereo not drawn) [OSI-906, 3-[8-Amino-1-(2-phenyl-7-quinolyl)imidazo[1,5-a]pyrazin-3-yl]-1-methyl-cyclobutanol, reference compound]: the IC50 in the test on HL-60 (HL60, promyelocytic leukemia (second entry of the table), 72 h) is less than 10 µM; with HL-60 (HL-60, promyelocytic leukemia, 72 h), less than 100 µM; in the test on HT-29 (HT29, colon adenocarcinoma (second entry of the table), 72 h), less than 10 µM; in the test on HT-29 (HT-29, colon cancer, 72 h), less than 100 µM; with SW-620 (72 h), less than 100 µM; in the test with A549 (72 h), 10 µM. Also, the IC50 with COLO 205 (COLO-205, colon adenocarcinoma, 72 h) is 1 µM; with HCT-116 (72 h), less than 100 µM; in the test with HCT-15 (72 h), less than 100 µM. The inhibition at 1 µM on KDR was 40 to 59%; on IGF1R [3], greater than 60%. The “phosphorylated AKT levels normalized to actin levels (pAKT/actin)” value amounted to 0.85 in test [1] (1 nM compound 2 h) and 0.40 in test [1] (100 nM compound 2 h).
